Publication PMC12630027, “RALGEF inhibitors suppress RAS-driven pancreatic cancer and metastasis” (The Journal of Biological Chemistry, 2025)

Experiments:
[1] = molecular target: T1, isolated RA domain of RALGDS; assay: microscale thermophoresis, one-site model; settings: 50 nM fluorescently labelled RALGDS RA domain, 5% DMSO; average of four experiments; compound solubility may have compromised the assay; read-out: binding affinity
T1 construct: isolated RAS association (RA) domain, C-terminal; fluorescently labelled
Source text: microscale thermophoresis, one-site model on isolated RA domain of RALGDS | obtained binding affinities in the low μM range

[2] = molecular target: T2, full-length RALGDS recombinant protein (Homo sapiens, UniProt Q12967); assay: analytical ultracentrifugation; assay type: binding
T2 construct: full length, purified recombinant, purchased from Genscript Biotech
T2 sequence (Q12967 1-914): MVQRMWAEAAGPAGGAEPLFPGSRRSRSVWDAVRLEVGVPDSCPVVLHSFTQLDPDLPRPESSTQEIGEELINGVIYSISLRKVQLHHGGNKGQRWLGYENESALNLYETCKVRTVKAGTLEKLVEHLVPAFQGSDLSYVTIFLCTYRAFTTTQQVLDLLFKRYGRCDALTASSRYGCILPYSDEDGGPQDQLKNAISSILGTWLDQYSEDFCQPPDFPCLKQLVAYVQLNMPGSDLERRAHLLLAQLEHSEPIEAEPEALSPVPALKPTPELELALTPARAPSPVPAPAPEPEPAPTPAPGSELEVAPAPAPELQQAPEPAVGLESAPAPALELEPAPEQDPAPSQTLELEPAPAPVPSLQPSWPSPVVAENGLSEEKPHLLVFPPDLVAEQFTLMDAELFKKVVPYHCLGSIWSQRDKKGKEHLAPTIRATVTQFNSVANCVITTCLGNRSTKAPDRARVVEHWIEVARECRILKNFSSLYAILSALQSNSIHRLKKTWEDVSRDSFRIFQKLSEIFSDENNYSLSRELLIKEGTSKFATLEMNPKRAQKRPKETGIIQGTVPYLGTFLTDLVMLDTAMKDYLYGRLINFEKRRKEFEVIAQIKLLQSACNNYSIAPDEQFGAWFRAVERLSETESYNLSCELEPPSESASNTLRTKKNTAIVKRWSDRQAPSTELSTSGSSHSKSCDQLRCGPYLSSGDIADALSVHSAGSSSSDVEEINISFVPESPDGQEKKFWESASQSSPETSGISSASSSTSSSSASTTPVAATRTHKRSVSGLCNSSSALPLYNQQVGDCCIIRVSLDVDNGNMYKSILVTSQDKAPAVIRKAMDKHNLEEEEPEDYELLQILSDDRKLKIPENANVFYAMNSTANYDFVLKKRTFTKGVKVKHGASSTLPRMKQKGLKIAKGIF

RGL2 (also known as Rlf) = molecular target: T3, RGL2 (also known as Rlf) (Homo sapiens, UniProt O15211); assay: co-immunoprecipitation of H-RAS12V from mixed HEK-293 lysates, Western blot; assay type: biochemical; settings: 20 μM (figure legend; 10 μM in methods), HA-H-RAS12V partner, pH 7.5, room temperature; inhibition of RAS/RALGEF complex
T3 construct: full length, GFP-tagged, plasmid gift of CJ Der, expressed in HEK-293, lysate

RGL3 = molecular target: T4, RGL3 (Homo sapiens, UniProt Q3MIN7); assay: as above; assay type: biochemical; settings: 20 μM (figure legend; 10 μM in methods), HA-H-RAS12V partner, pH 7.5, room temperature; inhibition of RAS/RALGEF complex
T4 construct: Flag-tagged, construct purchased from Genscript, expressed in HEK-293, lysate

GFP-tagged RALGDS = molecular target: T5, GFP-tagged RALGDS (Homo sapiens, UniProt Q12967); assay: as above; assay type: biochemical; settings: 20 μM (figure legend; 10 μM in methods), HA-H-RAS12V partner, pH 7.5, room temperature; inhibition of RAS/RALGEF complex
T5 construct: full length, GFP-tagged, plasmid gift of CJ Der, expressed in HEK-293, lysate

| Compound | Kd [1] | Kd [2] | co-immunoprecipitation of H-RAS12V from mixed HEK-293 lysates, Western blot (RGL2 (also known as Rlf)) | co-immunoprecipitation of H-RAS12V from mixed HEK-293 lysates, Western blot (RGL3) | co-immunoprecipitation of H-RAS12V from mixed HEK-293 lysates, Western blot (GFP-tagged RALGDS) |
| --- | --- | --- | --- | --- | --- |
| COc1cccc(CNc2nc(CNCc3cccc(F)c3)nc3sc(C)c(C)c23)c1 [C4-180] | 2.55 µM | ~1 µM | C4-180 was noticably better at suppressing the interaction of RAS with RALGDS and RGL2 | C4-180 could act on RALGDS, RGL2 and RGL3 family members | C4-180 was noticably better at suppressing the interaction of RAS with RALGDS and RGL2 |
| COc1cccc(CNc2nc(CN(C)Cc3cccc(OC)c3)nc3sc(C)c(C)c23)c1 [C4] | – | – | The complex formation was suppressed. | – | The complex formation was suppressed. |
